Source: patent US11178871B2, “Herbicidal pyrimidine compounds” (BASF SE, priority 2016, dated 2021)

Experiments:
Type in all cases: in vivo
Echinocloa crus-galli [1] = experiment: greenhouse test, post-emergence treatment, ECHCG; settings: post-emergence
Text: (§1) The culture containers used were plastic flowerpots containing loamy sand with approximately 3.0% of humus as the substrate. The seeds of the test plants were sown separately for each species.
(§2) For the post-emergence treatment, the test plants were first grown to a height of 3 to 15 cm, depending on the plant habit, and only then treated with the active ingredients which had been suspended or emulsified in water. For this purpose, the test plants were either sown directly and grown in the same containers, or they were first grown separately as seedlings and transplanted into the test containers a few days prior to treatment.
(§3) Depending on the species, the plants were kept at 10-25° C. or 20-35° C., respectively.
(§4) The test period extended over 2 to 4 weeks. During this time, the plants were tended, and their response to the individual treatments was evaluated.
(§5) Evaluation was carried out using a scale from 0 to 100. 100 means no emergence of the plants, or complete destruction of at least the aerial moieties, and 0 means no damage, or normal course of growth. A good herbicidal activity is given at values of at least 70 and a very good herbicidal activity is given at values of at least 85.
(§6) The plants used in the greenhouse experiments were of the following species: […]

Apera spica-venti = experiment: greenhouse test, pre-emergence treatment, APESV
Text: as §1
(§7) For the pre-emergence treatment, the active ingredients, which had been suspended or emulsified in water, were applied directly after sowing by means of finely distributing nozzles. The containers were irrigated gently to promote germination and growth and subsequently covered with transparent plastic hoods until the plants had rooted. This cover caused uniform germination of the test plants, unless this had been impaired by the active ingredients.
as §3, §4, §5, §6

Echinocloa crus-galli [2] = experiment: greenhouse test, pre-emergence treatment, ECHCG
Text: as §1, §7, §3, §4, §5, §6

Alopecurus myosuroides = experiment: greenhouse test, post-emergence treatment, ALOMY; settings: post-emergence
Text: as §1, §2, §3, §4, §5, §6

Avena fatua = experiment: greenhouse test, post-emergence treatment, AVEFA
Text: as §1, §2, §3, §4, §5, §6

Structure (SMILES): Cc1nc(C)c(-c2nc(C3CC3)ncc2-c2ccccc2Cl)o1 [Ex. 243]
- herbicidal activity (Echinocloa crus-galli [1]; 1000 g/ha): very good (a very good herbicidal activity is given at values of at least 85)
- herbicidal activity (Apera spica-venti; 1000 g/ha): very good (a very good herbicidal activity is given at values of at least 85)
- herbicidal activity (Echinocloa crus-galli [2]; 1000 g/ha): very good (a very good herbicidal activity is given at values of at least 85)
- herbicidal activity (Alopecurus myosuroides; 1000 g/ha): very good (a very good herbicidal activity is given at values of at least 85)
- herbicidal activity (Avena fatua; 1000 g/ha): very good (a very good herbicidal activity is given at values of at least 85)

Structure (SMILES): OC(Cc1nc(C2CC2)ncc1-c1ccccc1Cl)c1ccco1 (centres unmarked) [Ex. 106]
- herbicidal activity (Echinocloa crus-galli [1]; 2000 g/ha): very good (a very good herbicidal activity is given at values of at least 85)
- herbicidal activity (Apera spica-venti; 2000 g/ha): very good (a very good herbicidal activity is given at values of at least 85)
- herbicidal activity (Echinocloa crus-galli [2]; 2000 g/ha): very good (a very good herbicidal activity is given at values of at least 85)
- herbicidal activity (Alopecurus myosuroides; 2000 g/ha): very good (a very good herbicidal activity is given at values of at least 85)
- herbicidal activity (Avena fatua; 2000 g/ha): very good (a very good herbicidal activity is given at values of at least 85)

Structure (SMILES): COC(=O)Cc1nc(C2CC2)ncc1-c1ccccc1Cl [Ex. 32]
- herbicidal activity (Echinocloa crus-galli [1]; 2000 g/ha): very good (a very good herbicidal activity is given at values of at least 85)
- herbicidal activity (Apera spica-venti; 2000 g/ha): very good (a very good herbicidal activity is given at values of at least 85)
- herbicidal activity (Echinocloa crus-galli [2]; 2000 g/ha): very good (a very good herbicidal activity is given at values of at least 85)
- herbicidal activity (Alopecurus myosuroides; 2000 g/ha): very good (a very good herbicidal activity is given at values of at least 85)
- herbicidal activity (Avena fatua; 2000 g/ha): very good (a very good herbicidal activity is given at values of at least 85)

Structure (SMILES): COc1cnc(O)nc1-c1nc(C2CC2)ncc1-c1ccccc1Cl [Ex. 250]
- herbicidal activity (Echinocloa crus-galli [1]; 2000 g/ha): very good (a very good herbicidal activity is given at values of at least 85)
- herbicidal activity (Apera spica-venti; 2000 g/ha): very good (a very good herbicidal activity is given at values of at least 85)
- herbicidal activity (Echinocloa crus-galli [2]; 2000 g/ha): very good (a very good herbicidal activity is given at values of at least 85)
- herbicidal activity (Alopecurus myosuroides; 2000 g/ha): very good (a very good herbicidal activity is given at values of at least 85)
- herbicidal activity (Avena fatua; 2000 g/ha): very good (a very good herbicidal activity is given at values of at least 85)

Structure (SMILES): Clc1ccccc1-c1cnc(C2CC2)nc1C=C1CCC1 [Ex. 71]
- herbicidal activity (Echinocloa crus-galli [1]; 2000 g/ha): good (A good herbicidal activity is given at values of at least 70)
- herbicidal activity (Apera spica-venti; 2000 g/ha): very good (a very good herbicidal activity is given at values of at least 85)
- herbicidal activity (Echinocloa crus-galli [2]; 2000 g/ha): very good (a very good herbicidal activity is given at values of at least 85)
- herbicidal activity (Alopecurus myosuroides; 2000 g/ha): very good (a very good herbicidal activity is given at values of at least 85)
- herbicidal activity (Avena fatua; 2000 g/ha): very good (a very good herbicidal activity is given at values of at least 85)

Structure (SMILES): CC(O)C(O)c1nc(C2CC2)ncc1-c1ccccc1Cl (centres unmarked) [Ex. 147]
- herbicidal activity (Echinocloa crus-galli [1]; 2000 g/ha): very good (a very good herbicidal activity is given at values of at least 85)
- herbicidal activity (Apera spica-venti; 2000 g/ha): very good (a very good herbicidal activity is given at values of at least 85)
- herbicidal activity (Echinocloa crus-galli [2]; 2000 g/ha): very good (a very good herbicidal activity is given at values of at least 85)
- herbicidal activity (Alopecurus myosuroides; 2000 g/ha): very good (a very good herbicidal activity is given at values of at least 85)
- herbicidal activity (Avena fatua; 2000 g/ha): very good (a very good herbicidal activity is given at values of at least 85)

Structure (SMILES): Brc1ccccc1-c1cnc(C2CC2)nc1-c1cocn1 [Ex. 287]
- herbicidal activity (Echinocloa crus-galli [1]; 1000 g/ha): very good (a very good herbicidal activity is given at values of at least 85)
- herbicidal activity (Apera spica-venti; 1000 g/ha): very good (a very good herbicidal activity is given at values of at least 85)
- herbicidal activity (Echinocloa crus-galli [2]; 1000 g/ha): very good (a very good herbicidal activity is given at values of at least 85)
- herbicidal activity (Alopecurus myosuroides; 1000 g/ha): very good (a very good herbicidal activity is given at values of at least 85)
- herbicidal activity (Avena fatua; 1000 g/ha): very good (a very good herbicidal activity is given at values of at least 85)

Structure (SMILES): Brc1ccccc1-c1cnc(C2CC2)nc1C=C1CCC1 [Ex. 157]
- herbicidal activity (Echinocloa crus-galli [1]; 2000 g/ha): very good (a very good herbicidal activity is given at values of at least 85)
- herbicidal activity (Apera spica-venti; 2000 g/ha): very good (a very good herbicidal activity is given at values of at least 85)
- herbicidal activity (Echinocloa crus-galli [2]; 2000 g/ha): very good (a very good herbicidal activity is given at values of at least 85)
- herbicidal activity (Alopecurus myosuroides; 2000 g/ha): very good (a very good herbicidal activity is given at values of at least 85)
- herbicidal activity (Avena fatua; 2000 g/ha): very good (a very good herbicidal activity is given at values of at least 85)

Structure (SMILES): OC(c1nc(C2CC2)ncc1-c1ccccc1Cl)C1(O)CCC1 (centres unmarked) [Ex. 154]
- herbicidal activity (Echinocloa crus-galli [1]; 2000 g/ha): very good (a very good herbicidal activity is given at values of at least 85)
- herbicidal activity (Apera spica-venti; 2000 g/ha): very good (a very good herbicidal activity is given at values of at least 85)
- herbicidal activity (Echinocloa crus-galli [2]; 2000 g/ha): very good (a very good herbicidal activity is given at values of at least 85)
- herbicidal activity (Alopecurus myosuroides; 2000 g/ha): very good (a very good herbicidal activity is given at values of at least 85)
- herbicidal activity (Avena fatua; 2000 g/ha): very good (a very good herbicidal activity is given at values of at least 85)

Structure (SMILES): Cc1ncoc1-c1nc(C2CC2)ncc1-c1cc(F)ccc1Cl [Ex. 236]
- herbicidal activity (Echinocloa crus-galli [1]; 2000 g/ha): very good (a very good herbicidal activity is given at values of at least 85)
- herbicidal activity (Apera spica-venti; 2000 g/ha): very good (a very good herbicidal activity is given at values of at least 85)
- herbicidal activity (Echinocloa crus-galli [2]; 2000 g/ha): very good (a very good herbicidal activity is given at values of at least 85)
- herbicidal activity (Alopecurus myosuroides; 2000 g/ha): very good (a very good herbicidal activity is given at values of at least 85)
- herbicidal activity (Avena fatua; 2000 g/ha): very good (a very good herbicidal activity is given at values of at least 85)

Structure (SMILES): Cc1oc(C(C)C)nc1-c1nc(C2CC2)ncc1-c1ccccc1Cl [Ex. 283]
- herbicidal activity (Echinocloa crus-galli [1]; 2000 g/ha): very good (a very good herbicidal activity is given at values of at least 85)
- herbicidal activity (Apera spica-venti; 2000 g/ha): very good (a very good herbicidal activity is given at values of at least 85)
- herbicidal activity (Echinocloa crus-galli [2]; 2000 g/ha): good (A good herbicidal activity is given at values of at least 70)
- herbicidal activity (Alopecurus myosuroides; 2000 g/ha): very good (a very good herbicidal activity is given at values of at least 85)
- herbicidal activity (Avena fatua; 2000 g/ha): very good (a very good herbicidal activity is given at values of at least 85)

Structure (SMILES): Clc1ccccc1-c1cnc(C2CC2)nc1-c1cncs1 [Ex. 245]
- herbicidal activity (Echinocloa crus-galli [1]; 1000 g/ha): very good (a very good herbicidal activity is given at values of at least 85)
- herbicidal activity (Apera spica-venti; 1000 g/ha): very good (a very good herbicidal activity is given at values of at least 85)
- herbicidal activity (Echinocloa crus-galli [2]; 1000 g/ha): good (A good herbicidal activity is given at values of at least 70)
- herbicidal activity (Alopecurus myosuroides; 1000 g/ha): very good (a very good herbicidal activity is given at values of at least 85)
- herbicidal activity (Avena fatua; 1000 g/ha): very good (a very good herbicidal activity is given at values of at least 85)

Structure (SMILES): C/C=C/c1nc(C2CC2)ncc1-c1ccccc1Cl [Ex. 93]
- herbicidal activity (Echinocloa crus-galli [1]; 2000 g/ha): very good (a very good herbicidal activity is given at values of at least 85)
- herbicidal activity (Apera spica-venti; 2000 g/ha): very good (a very good herbicidal activity is given at values of at least 85)
- herbicidal activity (Echinocloa crus-galli [2]; 2000 g/ha): very good (a very good herbicidal activity is given at values of at least 85)
- herbicidal activity (Alopecurus myosuroides; 2000 g/ha): very good (a very good herbicidal activity is given at values of at least 85)
- herbicidal activity (Avena fatua; 2000 g/ha): very good (a very good herbicidal activity is given at values of at least 85)
